Experimental data taken from patent US12697411B2, “In-situ film-forming composition” (priority 2021, dated 2026).

Experiment: Stability of the disinfectant (LAE) in contact with the polyamide lacquer, LC-MS of the film
Assay type: physicochemical
Conditions: Spray 1 (composition of Example 1) in polyamide-lacquered container, 3 months at 50° C.; LAE measured in film
Experimental: Besides, the stability of the disinfectant (LAE) present in the composition of Example 1 of the present invention in contact with the polyamide lacquer of the container was measured. Full containers loaded with Spray 1 of the present invention were controlled at 50° C. for 3 months, at 40° C. form 4 to 9 months, and at 30° C. from 6 to 18 months. After that time, the composition was applied to a surface to form the adherent film, in which the amount of LAE was calculated (mg of LAE/g of film).
The method for calculating the amount of LAE consists of a liquid chromatography-mass spectrometry (LC-MS) analysis of the tested sample previously sprayed into a container (glass flask) and dried into a rotary evaporator. The exact and constant weight of the residue is determined. This residue is dissolved in Acetonitrile and doped with a known volume solution of a solution f the internal pattern (Dodine, commercially available) in a known concentration. Then it is stirred and then, pure water at pH 3-4 (acidified with HCl) is added still flushing, this allows precipitating the polymer. The supernatant is filtered and punctured by LC-MS.
• Detector: ACQ-QDa mass Detector • Column: Kromasil 100-5-C18 150×4.0 mm. (5 μm, 100 Å) • System design: Mobil phase entrance-Column-PDA entrance-QDa entrance-Waste Exit
• Fluxe: 1.00 mL/min. […]

reduction of the amount of disinfectant (LAE): about 11%
SMILES: CCCCCCCCCCCC(=O)N[C@@H](CCCN=C(N)N)C(=O)OCC.Cl [LAE, Ethyl lauroyl arginate hydrochloride salt]
